{"source": "patent US20260124184A1", "about": "“ONCE DAILY ALDOSTERONE SYNTHASE INHIBITOR (R)-(+)-5-(P-CYANOPHENYL)-5,6,7,8-TETRAHYDROIMIDAZO[L,5-A]PYRIDINE” (priority 2022, published 2026)", "key": {"[1]": {"test_system": "patients with primary aldosteronism", "description": "(§1) A double-blind, randomized, Phase 2 trial was conducted between November 2019 and June 2022 at 11 centres in Italy, Switzerland and the Netherlands (NCT04007406). […] Patients requiring fixed-dose antihypertensive therapy continued treatment throughout the study; steroid therapies, β-adrenergic and renin-angiotensin-aldosterone system blockers were not permitted. At 14-day intervals, office blood pressures were recorded and blood samples were taken for measurement of steroid and peptide hormones and electrolytes at a central laboratory.\nBlood pressure and pulse rate were measured at each visit after a >15-minute rest in sitting position. Blood pressure and pulse rate were measured using a locally calibrated and validated automated oscillometric device (e.g., Omron Healthcare). An adapted wrap cuff was placed on the dominant arm. Three repeat measurements with a 10-minute interval were recorded; the average of the 2nd and 3rd measurements were study relevant.\n(§2) For all efficacy endpoints, changes from baseline were calculated from linear models and accompanied by 95% confidence intervals and p values. Log-transformed values were used for changes in ARR. The full analysis set (FAS) and safety set were defined as all randomized patients who received at least one dose of study drug."}, "[2]": {"test_system": "patients with primary aldosteronism", "description": "as §1\nA centrally calibrated and validated device (Spacelab Healthcare) was used; the device was fitted at the hospital outpatient department by medically qualified staff on day −1 and day 55 prior to supervised drug intake by the patient. The light digital monitor with convenient carry pouches takes the blood pressure reading at regular intervals by inflating and subsequently deflating customized cuffs placed around the non-dominant upper arm for 24-hour recording of about 70 readings. Patients followed their regular routines yet refrained from exercising or taking a bath or shower. In addition, to assure proper measurements, the patient was asked to sit down prior to reading, keep the cuff at the same level as the heart and rest the arm steady. The patient was also asked to keep a diary on activities, meals and sleep to document what he/she was doing just before the reading was taken. At the end of the 24-hour period, the patient was able to remove the monitor and cuff, shower or bathe and return the device to the Investigator at the clinic. The machine stored all readings as source data that were uploaded in the eCRF.\nas §2", "remark": "listed apart in the source"}, "[3]": {"details": "4 mg once daily, n=10, Day 1 (baseline)"}, "[4]": {"details": "4 mg once daily, n=10, Day 70 (after placebo withdrawal)"}, "[5]": {"details": "8 mg once daily, n=12, Day 1 (baseline)"}, "[6]": {"details": "8 mg once daily, n=12, Day 70 (after placebo withdrawal)"}, "[7]": {"details": "12 mg once daily, n=13, Day 1 (baseline)"}, "[8]": {"details": "all doses combined, n=35, Day 1 (baseline)"}, "[9]": {"details": "all doses combined, n=35, Day 56"}}, "note": "Like-named read-outs stand apart in the source and are kept apart here.", "data": [{"substance": "(R)-(+)-5-(p-cyanophenyl)-5,6,7,8-tetrahydroimidazolium[1,5-a]pyridine dihydrogen phosphate [dexfadrostat phosphate]", "values": [{"measurement": "office blood pressure (oSBP), mean", "setting": "[1]; [3]", "value": 146.95, "unit": "mmHg"}, {"measurement": "office blood pressure (oSBP), median", "setting": "[1]; [3]", "value": 144.00, "unit": "mmHg"}, {"measurement": "office blood pressure (oSBP), mean", "setting": "[1]; 4 mg once daily, n=10, Day 14", "value": 134.55, "unit": "mmHg"}, {"measurement": "office blood pressure (oSBP), median", "setting": "[1]; 4 mg once daily, n=10, Day 14", "value": 136.25, "unit": "mmHg"}, {"measurement": "office blood pressure (oSBP), mean", "setting": "[1]; 4 mg once daily, n=10, Day 28", "value": 133.70, "unit": "mmHg"}, {"measurement": "office blood pressure (oSBP), median", "setting": "[1]; 4 mg once daily, n=10, Day 28", "value": 130.50, "unit": "mmHg"}, {"measurement": "office blood pressure (oSBP), mean", "setting": "[1]; 4 mg once daily, n=10, Day 42", "value": 134.90, "unit": "mmHg"}, {"measurement": "office blood pressure (oSBP), median", "setting": "[1]; 4 mg once daily, n=10, Day 42", "value": 132.75, "unit": "mmHg"}, {"measurement": "office blood pressure (oSBP), mean", "setting": "[1]; 4 mg once daily, n=10, Day 56", "value": 133.00, "unit": "mmHg"}, {"measurement": "office blood pressure (oSBP), median", "setting": "[1]; 4 mg once daily, n=10, Day 56", "value": 133.75, "unit": "mmHg"}, {"measurement": "office blood pressure (oSBP), mean", "setting": "[1]; [4]", "value": 142.20, "unit": "mmHg"}, {"measurement": "office blood pressure (oSBP), median", "setting": "[1]; [4]", "value": 145.25, "unit": "mmHg"}, {"measurement": "office blood pressure (oSBP), mean", "setting": "[1]; [5]", "value": 148.00, "unit": "mmHg"}, {"measurement": "office blood pressure (oSBP), median", "setting": "[1]; [5]", "value": 147.00, "unit": "mmHg"}, {"measurement": "office blood pressure (oSBP), mean", "setting": "[1]; 8 mg once daily, n=12, Day 14", "value": 137.88, "unit": "mmHg"}, {"measurement": "office blood pressure (oSBP), median", "setting": "[1]; 8 mg once daily, n=12, Day 14", "value": 137.50, "unit": "mmHg"}, {"measurement": "office blood pressure (oSBP), mean", "setting": "[1]; 8 mg once daily, n=12, Day 28", "value": 135.08, "unit": "mmHg"}, {"measurement": "office blood pressure (oSBP), median", "setting": "[1]; 8 mg once daily, n=12, Day 28", "value": 133.25, "unit": "mmHg"}, {"measurement": "office blood pressure (oSBP), mean", "setting": "[1]; 8 mg once daily, n=12, Day 42", "value": 137.83, "unit": "mmHg"}, {"measurement": "office blood pressure (oSBP), median", "setting": "[1]; 8 mg once daily, n=12, Day 42", "value": 134.50, "unit": "mmHg"}, {"measurement": "office blood pressure (oSBP), mean", "setting": "[1]; 8 mg once daily, n=12, Day 56", "value": 134.42, "unit": "mmHg"}, {"measurement": "office blood pressure (oSBP), median", "setting": "[1]; 8 mg once daily, n=12, Day 56", "value": 135.75, "unit": "mmHg"}, {"measurement": "office blood pressure (oSBP), mean", "setting": "[1]; [6]", "value": 142.46, "unit": "mmHg"}, {"measurement": "office blood pressure (oSBP), median", "setting": "[1]; [6]", "value": 139.75, "unit": "mmHg"}, {"measurement": "office blood pressure upon drug withdrawal", "setting": "[1]; Day 70, after 14-day placebo withdrawal", "value": "blood pressure values returned towards baseline levels"}, {"measurement": "effect on office blood pressure", "setting": "[1]; each dose arm, sustained over active treatment period", "value": "rapid and significant (p≤0.001) decrease in office blood pressure"}, {"measurement": "change in 24-h aSBP from baseline to Day 56, mean", "setting": "[2]; 4 mg once daily, n=10", "value": "−8.10", "unit": "mmHg"}, {"measurement": "change in 24-h aSBP from baseline to Day 56, median", "setting": "[2]; 4 mg once daily, n=10", "value": "−8.17", "unit": "mmHg"}, {"measurement": "24-h aSBP, mean", "setting": "[2]; [3]", "value": 136.84, "unit": "mmHg"}, {"measurement": "24-h aSBP, median", "setting": "[2]; [3]", "value": 138.38, "unit": "mmHg"}, {"measurement": "24-h aSBP, mean", "setting": "[2]; 4 mg once daily, n=10, Day 56", "value": 128.74, "unit": "mmHg"}, {"measurement": "24-h aSBP, median", "setting": "[2]; 4 mg once daily, n=10, Day 56", "value": 129.43, "unit": "mmHg"}, {"measurement": "change in 24-h aSBP from baseline to Day 56, mean", "setting": "[2]; 8 mg once daily, n=12", "value": "−13.95", "unit": "mmHg"}, {"measurement": "change in 24-h aSBP from baseline to Day 56, median", "setting": "[2]; 8 mg once daily, n=12", "value": "−13.33", "unit": "mmHg"}, {"measurement": "24-h aSBP, mean", "setting": "[2]; [5]", "value": 144.88, "unit": "mmHg"}, {"measurement": "24-h aSBP, median", "setting": "[2]; [5]", "value": 144.76, "unit": "mmHg"}, {"measurement": "24-h aSBP, mean", "setting": "[2]; 8 mg once daily, n=12, Day 56", "value": 130.93, "unit": "mmHg"}, {"measurement": "24-h aSBP, median", "setting": "[2]; 8 mg once daily, n=12, Day 56", "value": 129.43, "unit": "mmHg"}, {"measurement": "change in 24-h aSBP from baseline to Day 56, mean", "setting": "[2]; 12 mg once daily, n=13", "value": "−9.81", "unit": "mmHg"}, {"measurement": "change in 24-h aSBP from baseline to Day 56, median", "setting": "[2]; 12 mg once daily, n=13", "value": "−12.43", "unit": "mmHg"}, {"measurement": "24-h aSBP, mean", "setting": "[2]; [7]", "value": 144.96, "unit": "mmHg"}, {"measurement": "24-h aSBP, median", "setting": "[2]; [7]", "value": 146.87, "unit": "mmHg"}, {"measurement": "24-h aSBP, mean", "setting": "[2]; 12 mg once daily, n=13, Day 56", "value": 135.15, "unit": "mmHg"}, {"measurement": "24-h aSBP, median", "setting": "[2]; 12 mg once daily, n=13, Day 56", "value": 130.82, "unit": "mmHg"}, {"measurement": "decrease in mean 24-h aSBP from baseline to day 56", "setting": "[2]; all dose groups combined, p<0.0001", "value": 10.7, "unit": "mmHg"}, {"measurement": "change in aSBP from baseline to Day 56, mean", "setting": "[2]; all doses combined, n=35", "value": "−10.74", "unit": "mmHg"}, {"measurement": "change in aSBP from baseline to Day 56, median", "setting": "[2]; all doses combined, n=35", "value": "−12.23", "unit": "mmHg"}, {"measurement": "24-hour ambulatory SBP (aSBP), mean", "setting": "[2]; [8]", "value": 142.62, "unit": "mmHg"}, {"measurement": "24-hour ambulatory SBP (aSBP), median", "setting": "[2]; [8]", "value": 143.4, "unit": "mmHg"}, {"measurement": "24-hour ambulatory SBP (aSBP), mean", "setting": "[2]; [9]", "value": 131.87, "unit": "mmHg"}, {"measurement": "24-hour ambulatory SBP (aSBP), median", "setting": "[2]; [9]", "value": 130.41, "unit": "mmHg"}, {"measurement": "LSM change in 24-hour aSBP from baseline", "setting": "[2]; all patients, Day 1 to Day 56, FIG. 2B, p<0.0001", "value": "−10.7", "unit": "mmHg"}, {"measurement": "effect on 24-hour aSBP", "setting": "[2]; each dose arm, baseline to day 56", "value": "significant reduction (p<0.001) in 24-hour aSBP"}]}]}
